Laboratory results: patent publication US7138403B2, “2,4,5-trisubstituted thiazolyl derivatives and their antiinflammatory activity” (Janssen Pharmaceutica N.V., priority 2001, dated 2006)

Columns and labels:
IL-12p70 production = test: In vitro inhibition of IL-12p70 production in human blood (LPS-stimulated whole blood, ELISA); format: cell-based; conditions: test dose 1 × 10^−8 M, LPS 100 ng/ml, 24 hours, read-out: % inhib. IL-12 (p70)
Method: In Vitro Inhibition of IL-12p70 Production in Human Blood Human Whole Blood Stimulation Peripheral blood from healthy donors was drawn into heparinized syringes (12.5 U heparin/ml). Blood samples were three-fold diluted in RMPI 1640 medium (Life Technologies, Belgium) supplemented with 2 mM L-glutamine, 100 U/ml penicillin and 100 μg/ml streptomycin, and 200 μl fractions were distributed in 96-well plates (Nunc, Roskilde, Denmark). Blood samples were preincubated (5 minutes at 37° C.) in a humidified 5% CO2-atmosphere with 25 μl of drug solvent (final concentration 0.1% dimethylsulfoxide in RPMI 1640) or with 25 μl of an appropriate dose of test compound before being stimulated by the addition of 25 μl of lipopolysaccharide at a final concentration of 100 ng/ml. After 24 hours, cell-free supernatant fluids were collected by centrifugation and stored at −20° C. until tested for the presence of IL-12. Cytokine Measurements Cytokine protein concentrations were determined by sandwich ELISA as described in Van Wauwe et al. (1996, Inflamm Res, 45,357–363). The quantikine HS kit (R &D HS120, Abingdon, United Kingdom) was used to quantify the cytokine levels (IL12 p70) in the supernatant

IL-12p40 production = test: In vitro inhibition of IL-12p40 production in human blood (LPS-stimulated whole blood, ELISA); format: cell-based; conditions: test dose 1 × 10^−6 M, LPS 100 ng/ml, 24 hours, read-out: % inhib. IL-12 (p40)
Method: In Vitro Inhibition of IL-12p40 Production in Human Blood
Human Whole Blood Stimulation
Peripheral blood from healthy male donors was drawn into heparinized syringes (12.5 U heparin/ml). Blood samples were three-fold diluted in RMPI 1640 medium (Life Technologies, Belgium) supplemented with 2 mM L-glutamine, 100 U/ml penicillin and 100 μg/ml streptomycin, and 300 μl fractions were distributed in 24-well multidisc plates (Nunc, Roskilde, Denmark). Blood samples were preincubated (60 minutes at 37° C.) in a humidified 6% CO2-atmosphere with 100 µl of drug solvent (final concentration 0.02% dimethylsulfoxide in RPMI 1640) or with 100 μl of an appropriate dose of test compound before being stimulated by the addition of 100 μl of lipopolysaccharide at a final concentration of 100 ng/ml. After 24 hours, cell-free supernatant fluids were collected by centrifugation and stored at −20° C. until tested for the presence of IL-12 p40.
Cytokine protein concentrations were determined by sandwich ELISA as described in Van Wauwe et al. (1996, Inflamm Res, 45, 357–363). Murine monoclonals used as capture antibodies to human cytokines were obtained from R&D Systems (Abingdon, United Kingdom) and code named MAB210 and MAB611 for TNF-α and IL-12 p40 respectively. Biotinylated goat polyclonal antibodies used to detect human cytokines were from R&D Systems (BAF210, BAF219). Cytokine levels were calculated from standard curves using recombinant cytokines supplied by R&D Systems.

Row | Structure (SMILES) | inhibition at 0.01 µM (IL-12p70 production) | inhibition at 1 µM (IL-12p40 production)
1 | Cc1nc(-c2ccc(C(F)(F)F)cc2)sc1-c1ccnc(N)n1 [Compound 9] | 92% | 57%
2 | Cc1nccc(-c2sc(-c3ccc(C(F)(F)F)cc3)nc2C)n1 [Compound 35] | 94% | 
3 | Cc1nc(-c2ccc(C(F)(F)F)cc2)sc1-c1ccnc(NCCCN)n1 [Compound 38] |  | 93%
4 | Cc1nc(-c2ccc(C(F)(F)F)cc2)sc1-c1ccnc(C#N)n1 [Compound 40] |  | 93%
5 | Cc1nc(-c2ccc(C(F)(F)F)cc2)sc1-c1nc(N)ncc1F [Compound 49] |  | 92%
6 | Cc1nc(-c2ccc(C(F)(F)F)cc2)sc1-c1ccnc(N(CCO)CCO)n1 [Compound 70] | 90% | 
7 | Cc1nc(-c2ccc(C(F)(F)F)cc2)sc1-c1cc(O)nc(N)n1 [Compound 80] |  | 49%
8 | Cc1nc(-c2ccc(C(F)(F)F)cc2)sc1-c1ncnc(N)n1 [Compound 81] | 94% | 
9 | COc1nccc(-c2sc(-c3ccc(C(F)(F)F)cc3)nc2C)n1 [Compound 83] |  | 59%
10 | Cc1nc(-c2ccc(C(F)(F)F)cc2)sc1-c1ccnc(NCCC(=O)O)n1 [Compound 84] | 95% | 
11 | Cc1nc(-c2ccc(C(F)(F)F)cc2)sc1-c1ccnc(NCC(=O)O)n1 [Compound 90] |  | 56%
